Results published in patent US20140243396A1, “METHOD OF TREATING MUCOEPIDERMOID CARCINOMA” (DANA-FARBER CANCER INSTITUTE, INC., priority 2011, published 2014).

Assays:
Assay type in all cases: cell-based
[1] = system: PDE4B; experiment: PDE4B expression in cells (qPCR); settings: vs shLUC
Method: FIG. 1 illustrates identification of CRTC1-MAML2 Target genes. […] RT-qPCR experiments were performed in triplicates. Columns: mean, bars: SD (n=3). *p<0.05, compared with expression from shLUC infected cells (Student t test). B Inhibition of CRTC1-MAML2 inhibited H3118 and H292 cell growth. Columns: mean, bars: SD (n=3). *p<0.05, **p<0.01, ***p<0.001, compared with shLUC. […] Columns: mean, bars: SD (n=3). […] Image was cropped and auto-leveled by Photoshop. A representative of three independent experiments.
Total RNA was isolated by the Trizol method (Invitrogen). qPCR was performed using ABI PRISM 7500 sequence detector (Applied Biosystems, Foster City, Calif.) by SYBR method (Applied Biosystems). The SYBR method uses SYBR Green I dye, which is a highly specific, double-stranded DNA binding dye, to detect PCR product as it accumulates during PCR cycles. All samples were amplified in triplicates. The relative change of transcript amount was normalized with the GAPDH mRNA expression levels (20).

[2] = system: HSY cells; experiment: Cell growth, cell count by trypan blue exclusion; settings: retroviral shRNA, fusion-negative HSY cells, compared to shLUC
Method: (§1) FIG. 2 illustrates inhibition of PDE4B by pharmacological inhibitor rolipram plus forskolin prevents cell growth, causes cell cycle arrest and induces apoptosis in fusion positive MEC cells. Rolipram (R), forskolin (FK), Rolipram plus forskolin (R+FK) or DMSO. Columns: mean, bars: SD (n>3), *p<0.05, **p<0.01, ***p<0.001, compared to HSY cell growth. B. 1×10^5 cells were treated with 50 μM R plus 20 μM FK or DMSO for 24 hours. C. 1×10^5 cells were treated with 50 μM rolipram plus 20 μM forskolin with or DMSO for 48 hours. Apoptosis assay was performed by PI and Annexin-V staining and analyzed by flow cytometry. Columns: mean, bars: SD (n=3). *p<0.05, compared with DMSO treated cells.
FIG. 3 illustrates knock-down of PDE4B inhibits fusion positive MEC cell growth, causes cell cycle arrest and induces apoptosis. A. H3118 cell lysate was prepared on day 5 post-transduction and subjected to western blot analysis. Image was cropped and auto-leveled by Photoshop. A representative of three independent experiments. B. 1×10^5 MEC cells were infected twice by shRNA No. 1 and No. 2 and cell number was count on day 5 post-transduction by trypan blue exclusion. Columns: mean, bars: SD (n>3). *p<0.05, **p<0.01, compared with scramble control virus infected cell growth. C. 1×10^5 cells were infected twice by shRNA No. 2. Cell cycle was determined by PI staining followed by FACS analysis on day 5 post-transduction, n=3. D. 1×10^5 cells were infected twice by shRNA No. 2. Apoptosis assay was performed by PI and Annexin-V staining and analyzed by flow cytometry on day 5 post-transduction, Columns: mean, bars: SD (n=3). *p<0.05, compared with control cells.
(§2) The Methods were described previously (Chen et al. Genes Cancer, 1:822-835 (2010)). Cell growth: 1-2×10^5 cells were infected with lenti-virus harboring specific shRNAs. On day 5 post infection, cells were counted by trypan blue exclusion. MTS proliferation assay (Promega, Madison, Wis.): 1-2×10^3 cells were treated with LY-294002, Compound A or DMSO in the concentration as indicated in FIG. 6A. MTS activities were measured on day 5. Cell cycle analysis: 1×10^5 cells were treated with inhibitors or infected with viruses. DNA amount was measured by flow cytometry analysis (BD FACScans). Apoptosis assay: 1×10^5 cells were treated with inhibitors or infected with virus. Cell viability was measured using the Annexin-V-FLUOS Staining Kit (Roche Diagnostics, Indianapolis, Ind.) by flow cytometry analysis (BD FACScans).

[3] = system: H292 and H3118 cells; experiment: Cell growth, cell count by trypan blue exclusion
Method: as §1
FIG. 6 illustrates PI3-kinase signaling contributes to MEC cell growth. A. Effects of PI3-kinase inhibitor LY-294002 or Compound A on MEC cell growth. […] The same blot was stripped and probed with anti-AKT or anti-V.-actin antibody. Image was cropped and auto-leveled by Photoshop. A representative of three independent experiments. (Right) MEC cell growth was measured by MTS assay on day 5 of LY-294002 or Compound A treatment. Points: mean, bars: SD (n=3). B. Effects of knock-down of PI3-kinase α or β on MEC cell growth. […] H3118 cell lysates were prepared on day 5 post-transduction. Image was cropped and auto-leveled by Photoshop. (Lower) Effects of knock-down of PI3-kinase α or β on MEC cell growth. 1×10^5 cells were transduced twice with lenti-viruses harboring shRNAs targeting PI3-K α, β or scramble control. Cell numbers were counted by trypan blue exclusion on day 5 posttransduction. Cell growth of scramble control virus infected cells was set to 100%, Columns: mean, bars: SD (n=3). **p<0.01, ***p<0.001 compared to control cells. C. Effects of Compound A in combination of rolipram plus forskolin on of MEC cell growth. 1×10^5 cells were treated with the combination of inhibitors listed. Cell numbers were counted by trypan blue exclusion on day 5, Columns: mean, bars: SD (n=3).
as §2

[4] = system: H3118 cells; experiment: Microarray gene expression after CRTC1-MAML2 knock-down
Method: H3118 or HSY cells were transduced twice with retro-virus harboring shLUC or sh#D. GFP-positive cells were sorted 48 hours post-transduction. Total RNA was extracted using Trizol reagents (Invitrogen) and purified by RNAeasy Mini Column (QIAGEN). Hybridization with Affymetrix U133A plus—2 microarray chips was performed and analyzed at Dana-Farber Cancer Institute Microarray Core. The d-Chip analysis software was used for the analysis; Li, C. and Wong, W. H. Proc. Natl. Acad. Sci. USA […]. Genes with three fold expression changes in H3118 cells were considered significant (n=3, p<=0.05).

[5] = retroviral shRNA, fusion-positive H292 and H3118 cells, compared to shLUC

Compound	PDE4B expression (in words) ([1]; H3118 and H292 cells)	PDE4B expression (in words) ([1]; fusion negative HSY cells)	cell growth (in words) [2]	cell growth (in words) [3, 5]	cell growth (in words) ([3]; inhibitor treatment, MEC cells)	PDE4B expression, down-regulation ([4]; CRTC1-MAML2 depletion) [fold]	HES2 expression, up-regulation ([4]; CRTC1-MAML2 knock-down vs luciferase knock-down) [fold]
shRNA #A: small hairpin RNA targeting the MAML2 moiety of CRTC1-MAML2, GTAATCAACCTAACACATA, SEQ ID NO 3	significantly inhibited PDE4B expression	not	no significant effect	significantly inhibited cell growth	–	–	–
COc1ccc(C2CNC(=O)C2)cc1OC1CCCC1 (centres unmarked) [rolipram, 4-(3-cyclopentyloxy-4-methoxyphenyl)pyrrolidin-2-one]	–	–	–	–	not changed	–	–
shRNA #D: small hairpin RNA targeting the MAML2 moiety of CRTC1-MAML2, GACAGAGCCTGGTAATGAT, SEQ ID NO 4	significantly inhibited PDE4B expression	not	no significant effect	significantly inhibited cell growth	–	17	7
